In the data set the test system is CCRIS mutagenicity, Ames/micronucleus/aberration tests. The data set can be described thus: CCRIS mutagenicity studies.
Setting [1] is: Test System: AMES SALMONELLA TYPHIMURIUM, Strain/Indicator: TA98, Metabolic Activation: NONE, Method: PREINCUBATION
[2] abbreviates: Test System: AMES SALMONELLA TYPHIMURIUM, Strain/Indicator: TA98, Metabolic Activation: RAT, LIVER, S-9, AROCLOR 1254, Method: PREINCUBATION
[3] abbreviates: Test System: AMES SALMONELLA TYPHIMURIUM, Strain/Indicator: TA100, Metabolic Activation: NONE, Method: PREINCUBATION
The mark [4] stands for this setting: Test System: AMES SALMONELLA TYPHIMURIUM, Strain/Indicator: TA100, Metabolic Activation: RAT, LIVER, S-9, AROCLOR 1254, Method: PREINCUBATION
[5] abbreviates: Test System: AMES SALMONELLA TYPHIMURIUM, Strain/Indicator: TA1535, Metabolic Activation: NONE, Method: PREINCUBATION
[6] abbreviates: Test System: AMES SALMONELLA TYPHIMURIUM, Strain/Indicator: TA1535, Metabolic Activation: RAT, LIVER, S-9, AROCLOR 1254, Method: PREINCUBATION
Setting [7] is: Test System: AMES SALMONELLA TYPHIMURIUM, Strain/Indicator: TA1537, Metabolic Activation: NONE, Method: PREINCUBATION
[8] abbreviates: Test System: AMES SALMONELLA TYPHIMURIUM, Strain/Indicator: TA1537, Metabolic Activation: RAT, LIVER, S-9, AROCLOR 1254, Method: PREINCUBATION
Setting [9] is: Test System: AMES SALMONELLA TYPHIMURIUM, Strain/Indicator: TA98, Metabolic Activation: NONE, Method: STANDARD PLATE.
Setting [10] is: Test System: AMES SALMONELLA TYPHIMURIUM, Strain/Indicator: TA98, Metabolic Activation: RAT, LIVER, S-9, AROCLOR 1254, Method: STANDARD PLATE.
Where [11] appears, read: Test System: AMES SALMONELLA TYPHIMURIUM, Strain/Indicator: TA100, Metabolic Activation: NONE, Method: STANDARD PLATE.
Setting [12] is: Test System: AMES SALMONELLA TYPHIMURIUM, Strain/Indicator: TA100, Metabolic Activation: RAT, LIVER, S-9, AROCLOR 1254, Method: STANDARD PLATE.
[13] abbreviates: Test System: AMES SALMONELLA TYPHIMURIUM, Strain/Indicator: TA1535, Metabolic Activation: NONE, Method: STANDARD PLATE.
Setting [14] is: Test System: AMES SALMONELLA TYPHIMURIUM, Strain/Indicator: TA1537, Metabolic Activation: NONE, Method: STANDARD PLATE.
The mark [15] stands for this setting: Test System: AMES SALMONELLA TYPHIMURIUM, Strain/Indicator: TA1537, Metabolic Activation: RAT, LIVER, S-9, AROCLOR 1254, Method: STANDARD PLATE.
Where [16] appears, read: Test System: AMES SALMONELLA TYPHIMURIUM, Strain/Indicator: TA1538, Metabolic Activation: NONE, Method: STANDARD PLATE.
Setting [17] is: Test System: AMES SALMONELLA TYPHIMURIUM, Strain/Indicator: TA1538, Metabolic Activation: RAT, LIVER, S-9, AROCLOR 1254, Method: STANDARD PLATE.

The results in this text go back to PubChem BioAssay AID1259407 (Chemical Carcinogenesis Research Information System (CCRIS), 2018).

Calls of active or inactive are those of the source. No rule for the calls is given here.

Take `O=c1[nH]c(=O)n([C@H]2C[C@H](O)[C@@H](CO)O2)cc1I`: the mutagenic call runs as follows: (Test System: AMES SALMONELLA TYPHIMURIUM, Strain/Indicator: TA97, Metabolic Activation: NONE, Method: PREINCUBATION) “inactive; negative”; (Test System: AMES SALMONELLA TYPHIMURIUM, Strain/Indicator: TA97, Metabolic Activation: RAT, LIVER, S-9, AROCLOR 1254, Method: PREINCUBATION) “inactive; negative”; under setting [1], “inactive; negative”; under setting [2], “inactive; negative”; under setting [3], “inactive; negative”; under setting [4], “inactive; negative”. Also, the mutagenic call was “inactive; negative” (Test System: AMES SALMONELLA TYPHIMURIUM, Strain/Indicator: TA102, Metabolic Activation: NONE, Method: PREINCUBATION); “inactive; negative” (Test System: AMES SALMONELLA TYPHIMURIUM, Strain/Indicator: TA102, Metabolic Activation: RAT, LIVER, S-9, AROCLOR 1254, Method: PREINCUBATION); “inactive; negative” (Test System: AMES SALMONELLA TYPHIMURIUM, Strain/Indicator: TA104, Metabolic Activation: NONE, Method: PREINCUBATION); “inactive; negative” (Test System: AMES SALMONELLA TYPHIMURIUM, Strain/Indicator: TA104, Metabolic Activation: RAT, LIVER, S-9, AROCLOR 1254, Method: PREINCUBATION); “inactive; negative” under setting [5]; “inactive; negative” under setting [6]. Moreover, the mutagenic call under setting [7] is “inactive; negative”; the mutagenic call under setting [8] was “inactive; negative”; the mutagenic call (Test System: AMES SALMONELLA TYPHIMURIUM, Strain/Indicator: TA1538, Metabolic Activation: NONE, Method: PREINCUBATION) is “inactive; negative”; the mutagenic call (Test System: AMES SALMONELLA TYPHIMURIUM, Strain/Indicator: TA1538, Metabolic Activation: RAT, LIVER, S-9, AROCLOR 1254, Method: PREINCUBATION) was “inactive; negative”; the mutagenic call (Test System: CHINESE HAMSTER V-79, Strain/Indicator: V-79/8-AZAGUANINE, Metabolic Activation: NONE) was “active; positive”; the mutagenic call (Test System: UDS RODENT HEPATOCYTES, Strain/Indicator: THY INCORP, Metabolic Activation: NONE) is “inactive; negative”.
As to `Cc1cccc2cccc([N+](=O)[O-])c12`, the mutagenic call under setting [1] was “active; positive”.
For `COC(=O)c1ccc(O)cc1`, the mutagenic call under setting [9] is “inactive; negative”; the mutagenic call under setting [10] is “inactive; negative”; the mutagenic call under setting [11] is “inactive; negative”; the mutagenic call under setting [12] is “inactive; negative”; the mutagenic call under setting [13] is “inactive; negative”; the mutagenic call (Test System: AMES SALMONELLA TYPHIMURIUM, Strain/Indicator: TA1535, Metabolic Activation: RAT, LIVER, S-9, AROCLOR 1254, Method: STANDARD PLATE) is “inactive; negative”. Besides, the mutagenic call reads like this: under setting [14], “inactive; negative”; under setting [15], “inactive; negative”; under setting [16], “inactive; negative”; under setting [17], “inactive; negative”; (Test System: E. COLI, Strain/Indicator: WP2, Metabolic Activation: NONE, Method: STANDARD PLATE) “inactive; negative”; (Test System: E. COLI, Strain/Indicator: WP2, Metabolic Activation: RAT, LIVER, S-9, AROCLOR 1254, Method: STANDARD PLATE) “inactive; negative”.
Take `Clc1c(Cl)c(Cl)c2ccccc2c1Cl`: the mutagenic call is, setting by setting: (Test System: AMES SALMONELLA TYPHIMURIUM, Strain/Indicator: TA98, Metabolic Activation: HAMSTER, LIVER, S-9, AROCLOR 1254, Method: PREINCUBATION) “inactive; negative”; under setting [1], “inactive; negative”; under setting [2], “inactive; negative”; (Test System: AMES SALMONELLA TYPHIMURIUM, Strain/Indicator: TA100, Metabolic Activation: HAMSTER, LIVER, S-9, AROCLOR 1254, Method: PREINCUBATION) “inactive; negative”; under setting [3], “inactive; negative”; under setting [4], “inactive; negative”. The mutagenic call reads like this: (Test System: AMES SALMONELLA TYPHIMURIUM, Strain/Indicator: TA1535, Metabolic Activation: HAMSTER, LIVER, S-9, AROCLOR 1254, Method: PREINCUBATION) “inactive; negative”; under setting [5], “inactive; negative”; under setting [6], “inactive; negative”; (Test System: AMES SALMONELLA TYPHIMURIUM, Strain/Indicator: TA1537, Metabolic Activation: HAMSTER, LIVER, S-9, AROCLOR 1254, Method: PREINCUBATION) “inactive; negative”; under setting [7], “inactive; negative”; under setting [8], “inactive; negative”.
Consider `CNC(=O)Oc1ccccc1OC(C)C`, for which the mutagenic call is, setting by setting: (Test System: AMES SALMONELLA TYPHIMURIUM, Strain/Indicator: TA98, Metabolic Activation: HAMSTER, LIVER, S-9, AROCLOR 1254, Method: STANDARD PLATE) “inactive; negative”; under setting [9], “inactive; negative”; under setting [10], “inactive; negative”; (Test System: AMES SALMONELLA TYPHIMURIUM, Strain/Indicator: TA100, Metabolic Activation: HAMSTER, LIVER, S-9, AROCLOR 1254, Method: STANDARD PLATE) “inactive; negative”; under setting [11], “inactive; negative”; under setting [12], “inactive; negative”. Also, the mutagenic call under setting [13] is “active; positive”; the mutagenic call under setting [14] was “inactive; negative”; the mutagenic call under setting [15] is “inactive; negative”; the mutagenic call (Test System: AMES SALMONELLA TYPHIMURIUM, Strain/Indicator: TA1538, Metabolic Activation: HAMSTER, LIVER, S-9, AROCLOR 1254, Method: STANDARD PLATE) is “inactive; negative”; the mutagenic call under setting [16] was “inactive; negative”; the mutagenic call under setting [17] was “inactive; negative”. The mutagenic call by setting is: (Test System: CHINESE HAMSTER V-79, Strain/Indicator: V-79(HPRT)/6-THIOGUANINE, Metabolic Activation: NONE) “inactive; negative”; (Test System: MOUSE LYMPHOMA, Strain/Indicator: L5178Y (TK+/TK-), Metabolic Activation: NONE, Method: SUSPENSION/PLATE) “active; positive. reevaluation of results: positive”; (Test System: MOUSE LYMPHOMA, Strain/Indicator: L5178Y (TK+/TK-), Metabolic Activation: RAT, LIVER, S-9, AROCLOR 1254, Method: SUSPENSION/PLATE) “active; positive. reevaluation of results: positive”.
For the molecule `CN(C)CCNC(=O)c1ccc2nc3ccccc3c(N)c2c1`, the mutagenic call under setting [14] was “inactive; negative”.
On to `O=C(N=c1sn(C(=O)c2cccc([N+](=O)[O-])c2)c2ccc([N+](=O)[O-])cc12)c1cccc([N+](=O)[O-])c1`, for which, under “Test System: AMES SALMONELLA TYPHIMURIUM, Strain/Indicator: TA100, Metabolic Activation: S-9, Method: STANDARD PLATE”, the mutagenic call was “active; positive”.
Turning to `C/C=C(\Cl)C=O`, the mutagenic call is, setting by setting: under setting [3], “active; positive”; (Test System: AMES SALMONELLA TYPHIMURIUM, Strain/Indicator: TA100, Metabolic Activation: NONE, Method: PREINCUBATION, LIQUID INCUBATION) “active; positive”.
